These compounds were tested against T1, Dimer of Gag-Pol polyprotein [489-587] (Human immunodeficiency virus 1, UniProt P12497) (assay: Protease Inhibition Assay). Settings: pH 5.5; 30 °C.
T1 construct: 489-587
Procedure: Sensitivity of HIV-1 protease activity to protease inhibitors was determined by a peptide substrate cleavage assay. Protease products were analyzed on a reverse-phase high-pressure liquid chromatograph.

Question: For `C[C@@H]1OCC[C@@H]1OC(=O)N[C@@H](Cc1ccccc1)[C@H](O)CN1C[C@H]2CCCC[C@H]2CC1C(=O)NC(C)(C)C` (stereo partly drawn) [(2S,3S)-2-methyloxolan-3-yl N-[(2S,3R)-4-[(4aS,8aS)-3-(tert-butylcarbamoyl)-decahydroisoquinolin-2-yl]-3-hydroxy-1-phenylbutan-2-yl]carbamate], which IC50 is on record?
Answer: 52.4 nM

Question: For `CC(C)(C)NC(=O)C1C[C@@H]2CCCC[C@@H]2CN1C[C@@H](O)[C@H](Cc1ccccc1)NC(=O)OCCS(C)(=O)=O` (stereo partly drawn) [2-methanesulfonylethyl N-[(2S,3R)-4-[(4aS,8aS)-3-(tert-butylcarbamoyl)-decahydroisoquinolin-2-yl]-3-hydroxy-1-phenylbutan-2-yl]carbamate], which IC50 is on record?
Answer: 1030 nM

Question: With `CC[C@@H]1[C@H](OC(=O)N[C@@H](Cc2ccccc2)[C@H](O)CN2C[C@H]3CCCC[C@H]3CC2C(=O)NC(C)(C)C)CCS1(=O)=O` (stereo partly drawn) [(2R,3R)-2-ethyl-1,1-dioxo--thiolan-3-yl N-[(2S,3R)-4-[(4aS,8aS)-3-(tert-butylcarbamoyl)-decahydroisoquinolin-2-yl]-3-hydroxy-1-phenylbutan-2-yl]carbamate] as the compound, how does the IC50 read?
Answer: 13.1 nM

Question: Which IC50 does the source give for `CC(C)(C)NC(=O)C1C[C@@H]2CCCC[C@@H]2CN1C[C@@H](O)[C@H](Cc1ccccc1)NC(=O)O[C@@H]1CCS(=O)(=O)C1` (stereo partly drawn) [(3R)-1,1-dioxo--thiolan-3-yl N-[(2S,3R)-4-[(4aS,8aS)-3-(tert-butylcarbamoyl)-decahydroisoquinolin-2-yl]-3-hydroxy-1-phenylbutan-2-yl]carbamate] here?
Answer: 140 nM

Question: Which IC50 does the source give for `C[C@@H]1[C@H](OC(=O)N[C@@H](Cc2ccccc2)[C@H](O)CN2C[C@H]3CCCC[C@H]3CC2C(=O)NC(C)(C)C)CCS1(=O)=O` (stereo partly drawn) [hydroxyethylene isostere] here?
Answer: 22.3 nM

Question: With `CC(C)C[C@@H]1[C@H](OC(=O)N[C@@H](Cc2ccccc2)[C@H](O)CN2C[C@H]3CCCC[C@H]3CC2C(=O)NC(C)(C)C)CCS1(=O)=O` (stereo partly drawn) [(2R,3R)-2-(2-methylpropyl)-1,1-dioxo--thiolan-3-yl N-[(2S,3R)-4-[(4aS,8aS)-3-(tert-butylcarbamoyl)-decahydroisoquinolin-2-yl]-3-hydroxy-1-phenylbutan-2-yl]carbamate] as the compound, how does the IC50 read?
Answer: 30 nM

Question: How did the IC50 turn out when `C[C@H]1[C@@H](OC(=O)N[C@@H](Cc2ccccc2)[C@H](O)CN2C[C@H]3CCCC[C@H]3CC2C(=O)NC(C)(C)C)CCS1(=O)=O` (stereo partly drawn) [(2S,3S)-2-methyl-1,1-dioxo--thiolan-3-yl N-[(2S,3R)-4-[(4aS,8aS)-3-(tert-butylcarbamoyl)-decahydroisoquinolin-2-yl]-3-hydroxy-1-phenylbutan-2-yl]carbamate] was run?
Answer: 11.4 nM

Question: With `CC[C@H]1[C@@H](OC(=O)N[C@@H](Cc2ccccc2)[C@H](O)CN2C[C@H]3CCCC[C@H]3CC2C(=O)NC(C)(C)C)CCS1(=O)=O` (stereo partly drawn) [(2S,3S)-2-ethyl-1,1-dioxo--thiolan-3-yl N-[(2S,3R)-4-[(4aS,8aS)-3-(tert-butylcarbamoyl)-decahydroisoquinolin-2-yl]-3-hydroxy-1-phenylbutan-2-yl]carbamate] as the compound, how does the IC50 read?
Answer: 5.4 nM

Question: With `CC(C)(C)NC(=O)C1C[C@@H]2CCCC[C@@H]2CN1C[C@@H](O)[C@H](Cc1ccccc1)NC(=O)O[C@H]1CCS(=O)(=O)C1` (stereo partly drawn) [(3S)-1,1-dioxo--thiolan-3-yl N-[(2S,3R)-4-[(4aS,8aS)-3-(tert-butylcarbamoyl)-decahydroisoquinolin-2-yl]-3-hydroxy-1-phenylbutan-2-yl]carbamate] as the compound, how does the IC50 read?
Answer: 75 nM

Question: How did the IC50 turn out when `C[C@H]1OCC[C@H]1OC(=O)N[C@@H](Cc1ccccc1)[C@H](O)CN1C[C@H]2CCCC[C@H]2CC1C(=O)NC(C)(C)C` (stereo partly drawn) [(2R,3R)-2-methyloxolan-3-yl N-[(2S,3R)-4-[(4aS,8aS)-3-(tert-butylcarbamoyl)-decahydroisoquinolin-2-yl]-3-hydroxy-1-phenylbutan-2-yl]carbamate] was run?
Answer: 169 nM

Question: Which IC50 does the source give for `CC(C)C[C@H]1[C@@H](OC(=O)N[C@@H](Cc2ccccc2)[C@H](O)CN2C[C@H]3CCCC[C@H]3CC2C(=O)NC(C)(C)C)CCS1(=O)=O` (stereo partly drawn) [(2S,3S)-2-(2-methylpropyl)-1,1-dioxo--thiolan-3-yl N-[(2S,3R)-4-[(4aS,8aS)-3-(tert-butylcarbamoyl)-decahydroisoquinolin-2-yl]-3-hydroxy-1-phenylbutan-2-yl]carbamate] here?
Answer: 12 nM

Question: Which IC50 does the source give for `CC(C)[C@H]1[C@@H](OC(=O)N[C@@H](Cc2ccccc2)[C@H](O)CN2C[C@H]3CCCC[C@H]3CC2C(=O)NC(C)(C)C)CCS1(=O)=O` (stereo partly drawn) [hydroxyethylene isostere] here?
Answer: 11 nM

Question: Which IC50 does the source give for `CC(C)[C@@H]1[C@H](OC(=O)N[C@@H](Cc2ccccc2)[C@H](O)CN2C[C@H]3CCCC[C@H]3CC2C(=O)NC(C)(C)C)CCS1(=O)=O` (stereo partly drawn) [(2R,3R)-1,1-dioxo-2-(propan-2-yl)--thiolan-3-yl N-[(2S,3R)-4-[(4aS,8aS)-3-(tert-butylcarbamoyl)-decahydroisoquinolin-2-yl]-3-hydroxy-1-phenylbutan-2-yl]carbamate] here?
Answer: 3 nM
